Data: PubChem BioAssay AID2384 (Southern Research Specialized Biocontainment Screening …, 2010)

tested on: S. typhi GFP reporter counter-screen, fluorescence, 4 h; experiment: inhibitors in S. typhi counter-screen strain, dose response, counter-screen for PhoP regulon inhibitor project, fluorescence, 4 h (AID 2384)

Structure (SMILES)	IC50 [µM]
Oc1ccc(Cl)cc1Cc1cc(Cl)ccc1O	27.7
CCCCCSc1cc(OC)c(CCNC)cc1OC	52.2
Cc1cc(C)n(-c2nc(NCCN(C)C)c3c4c(sc3n2)CCCC4)n1	37.9
O=C(OCC(=O)N1CCOCC1)c1ccc[nH]c1=O	10.9
O=C(Nc1ccccc1)Oc1ccc[nH]c1=O	52.9
Cc1ccccc1Nc1cc(C)c2c(O)cccc2n1	21.9
CC(C)(C)/C(O)=C/c1nc2cc(Cl)ccc2oc1=O	24.2
CCn1cc(C(=O)O)c(=O)c2cc(F)c(N3CCN(C(=S)NC(=O)c4ccccc4C)CC3)cc21	49.3
Cc1ccccc1S(=O)(=O)NNC(=O)C(=O)NNc1ccccn1	36.6
COc1ccc(CNc2ncnc3c2[nH]c2ccccc23)cc1	150
Cc1cc(N2CCC(C)CC2)nc(NCc2ccccc2)n1	51.8
COc1ccc(CNCCc2ccc(Cl)cc2)cc1OCc1ccccc1	69.3
CCN1CCN(C(=O)c2cc3cc(F)ccc3[nH]2)CC1	18.3
Clc1ccc(OCCCN2CCCC2)cc1Cl	28.3
CNCCC=C1c2ccccc2CCc2ccccc21	117
CC(/C=N/Nc1nc2ccccc2[nH]1)=C\c1ccccc1	77.8
Cc1cccc(C(=O)NNC(=S)NC(=O)c2cccs2)c1	66.3
Nc1nonc1-n1nnc(C(=O)N/N=C/c2ccccc2O)c1CN1CCCC1	112
C#CCOCCOCCOCCNc1nc(N2CCN(C(=O)[C@H](Cc3ccc(O)cc3)n3cc([C@@H](N)CC(C)C)nn3)CC2)nc(N2CCN(C(=O)[C@H](Cc3cc4ccccc4[nH]3)n3cc([C@@H](N)CC(C)C)nn3)CC2)n1	41.8
CCOc1ccc(/C=N/NC(=O)c2[nH]ncc2Br)c(O)c1	43.7
CN(C)CC/C=C1/c2cc(F)ccc2Sc2ccc(Cl)cc21	34.3
Cc1ccccc1C(=O)NNC(=S)NC(=O)COc1ccccc1	126
O=C(Nc1cccc(Br)c1)c1cc2ccccc2o1	83.3
Cc1ccc(NC(=O)CSC(N)=O)cc1Cl	82.1
O=C(CCc1ccccc1)NNC(=S)NC(=O)c1ccccc1	63
CNC(=S)N1CCN(c2c(F)cc3c(=O)c(C(=O)O)cn(C4CC4)c3c2OC)CC1C (stereo not drawn)	48.2

Structure (SMILES)	IC50 [µM]
Cc1cc(/C=C\c2ccc3cc(N(C)C)ccc3[n+]2C)c(C)n1-c1ccccc1	21.7
O=C(C[n+]1cc(Br)cc2ccccc21)c1ccc(F)cc1	75.7
CCN1CCCC1CNC(=O)c1cc2cc(F)ccc2[nH]1 (stereo not drawn)	19
Oc1c(Br)cc(Br)cc1C=Nc1cccc2ncccc12	21.8
Oc1c(Br)cc(Br)cc1C=NCc1ccccc1	40.4
O=C(CCN1Cc2ccccc2C1)c1ccc2c(c1)OCCO2	137
CC(Oc1ccc(Br)cc1)c1nc2c3ccccc3nc(=S)n2[nH]1 (stereo not drawn)	139
Fc1cccc(Nc2c3c(nc4ccccc24)CCC3)c1	76.6
CCCCCCCCCCCCCCCC[n+]1ccc(/C=N/O)cc1	36.9
CCCCCCCCCCOC(=O)C[N+](C)(C)CC1CCCCC1O (stereo not drawn)	37.6
CCOC(=O)C1=C(c2ccccc2)NC(N)=NC1c1ccc(OCc2ccc(C(=O)OC)cc2)cc1 (stereo not drawn)	35.8
Cc1cc(C)n(/N=C/c2cc(Cl)cc(Cl)c2O)c(=O)c1	101
C/C(=C\C(=O)OCCCCCCCCC(=O)O)C[C@@H]1OC[C@H](C[C@@H]2O[C@H]2[C@@H](C)[C@H](C)O)[C@@H](O)[C@H]1O	38.4
Cc1ccc(CNCCC2=CCCCC2)cc1	70.7
CCc1ccc(N2CC(C(=O)N/N=C/c3cc([N+](=O)[O-])ccc3O)CC2=O)cc1 (stereo not drawn)	48.7
Nc1cccc2c(=O)c3ccccc3[nH]c12	37.6
CCCCCc1ccc(OCCCC[n+]2ccccc2)c(CCCCC)c1	36.3
CCc1cccc2c1Sc1ccccc1CC2N1CCNCC1 (stereo not drawn)	39.3
COc1cc(/C=N/N=C(N)N)ccc1OCc1ccc(Cl)cc1	46.8
C#CCOCCOCCOCCNc1nc(N2CCN(C(=O)[C@H](Cc3ccc(O)cc3)n3cc([C@@H](N)C(C)CC)nn3)CC2)nc(N2CCN(C(=O)[C@H](Cc3cc4ccccc4[nH]3)n3cc([C@@H](N)Cc4ccc(O)cc4)nn3)CC2)n1 (stereo partly drawn)	32.5
O=C1OCC(CO)(CO)N=C1NNc1ccc(Cl)c(Cl)c1	144
O=C(N/N=C\C=C\c1ccc([N+](=O)[O-])o1)c1cccs1	11
O=C(NCCCN1CCN(c2ccc(F)cc2)CC1)Nc1ccc([N+](=O)[O-])cc1	74.7
CCc1ccc(NC(=O)Nc2ccncc2)cc1	88.4
CCOc1cc(Br)cc(/C=N/NC(=O)c2cccnc2)c1O	126
Oc1[nH]c2ccc(Br)cc2c1N=NC(=S)N1CCOCC1	33.1

Structure (SMILES)	IC50 [µM]
CN1CC(C(=O)c2ccc(Cl)cc2)C(c2ccc(Cl)cc2Cl)C1 (stereo not drawn)	23.6
CC1CCN(CCC(=O)Nc2ccc(Cl)cc2)CC1	105
C[C@H]1COc2c(C3(N)CC3)c(F)cc3c(=O)c(C(=O)O)cn1c23	0.9
C#CCOCCOCCOCCNc1nc(N2CCN(C(=O)CCCCCCCCCCNC(=O)[C@@H](CCSC)n3cc(CCO)nn3)CC2)nc(N2CCN(C(=O)CCCCCCCCCCNC(=O)[C@H]([C@@H](C)CC)n3cc(CCCCN=C(N)N)nn3)CC2)n1	83.1
COc1c(N2CCN[C@H](C)C2)c(F)cc2c(=O)c(C(=O)O)cn(C3CC3)c12	4.98
Clc1ccc(CN2C3=NCCN3c3ccccc32)cc1	42.8
CN1CCN(C(c2ccc(Cl)cc2)c2cc(Cl)c3cccnc3c2O)CC1 (stereo not drawn)	19.7
CC(C(=O)NC1C=CS(=O)(=O)C1)N1C(=O)/C(=C/c2cccc(Cl)c2)SC1=S (stereo not drawn)	59.2
O=c1[nH]cc(N=Cc2cc([N+](=O)[O-])ccc2O)c(=O)[nH]1	77.8
CO[C@H]1C=CO[C@@]2(C)Oc3c(C)c(O)c4c(O)c(c(C=NN5CCN(C)CC5)c(O)c4c3C2=O)NC(=O)C(C)=CC=C[C@H](C)[C@H](O)[C@@H](C)[C@@H](O)[C@@H](C)[C@H](OC(C)=O)[C@@H]1C	35.4
COc1cccc(Nc2nc(NCC3CCCO3)c3ccccc3n2)c1 (stereo not drawn)	31.1
CS(=O)(=O)c1ccc2nc(NC(=O)c3ccc(Cl)nc3)sc2c1	27.8
COc1c2ccccc2nc2ccccc12	40.4
CCCCCCCCCCCCOC(=O)C[N+](C)(C)C	19.9
O=C(/C=C/c1ccccc1)c1cc(Br)ccc(=O)c1O	21.8
O=c1[nH]c2ccccc2n2c(=S)[nH]nc12	147
C[C@H]1O[C@@H](n2cc(F)c(=O)[nH]c2=O)[C@H](O)[C@@H]1O	63.7
COc1cc(CNCCO)cc(Cl)c1OCc1ccc(Cl)cc1Cl	22.4
Clc1ccc(C(c2ccc(Cl)cc2)n2cc[n+](CC(OCc3ccc(Cl)cc3Cl)c3ccc(Cl)cc3Cl)c2)cc1 (stereo not drawn)	9.7
C#CCOCCOCCOCCNc1nc(N2CCN(C(=O)CCCCCCCCCCNC(=O)[C@H](CCCCN)n3cc(C[C@@H](C)CC)nn3)CC2)nc(N2CCN(C(=O)CCCCCCCCCCNC(=O)[C@H](CCCN=C(N)N)n3cc(C[C@@H](C)CC)nn3)CC2)n1	103
CCCCCC(CC(=O)NO)C(=O)NC(C(=O)N1CCCC1CO)C(C)C (stereo not drawn)	20.3
CC1CCc2c(N3CCC(O)CC3)c(F)cc3c(=O)c(C(=O)O)cn1c23 (stereo not drawn)	18.9
O=C(Nc1ccc([N+](=O)[O-])cc1Cl)c1cc(Cl)ccc1O	19.7
Fc1ccc(Nc2nnc(C(F)(F)F)s2)cc1Cl	37.8
N/C(=N\OS(=O)(=O)c1ccc(Cl)cc1)c1cccnc1	12.4
NC(N)=N/N=C/c1ccc(OCc2ccc(Cl)cc2)cc1	26.7
